Experimental data from patent publication US20240358693A1, “METHODS OF TREATING PAIN” (Aisa Pharma, Inc., priority 2023, published 2024).

Tested on: participants with SSc-RP
Test: Scleroderma Health Assessment Questionnaire (SHAQ): disability indices and visual analog scales
Assay type: in vivo, human
Conditions: for SHAQ Alternative Disability Index, Mean / SHAQ Alternative Disability Index, Median / SHAQ Standard Disability Index, Mean / SHAQ Standard Disability Index, Median: Patients with Diagnosis of SSc
Source text: The standard, validated, patient reported outcome measures tool for SSc patients, the Scleroderma Health Assessment Questionnaire (SHAQ), will be used to assess the participant qualify of life. Details are attached in the Appendix. The participant quality of life will be scored, and a disability index calculated for each questionnaire completed by the patient at Screening and each in-clinic visit. The absolute change in participant quality of life from baseline to the end of each dosing period will be calculated similar to frequency data as before.
The SHAQ includes a Raynaud's VAS, which will be reported at screening and each in-clinic visit. The absolute change in Raynaud-VAS, assessed by the participants response to the SHAQ question ‘In the past 7 days, how much have your Raynaud's interfered with your daily activities?’ at baseline and the end of each dosing period will be calculated similar to frequency data as before.
The SHAQ is used to calculate a Disability Index to assess the participant qualify of life. The eight categories assessed by the Disability Index are 1) dressing and grooming, 2) arising, 3) eating, 4) walking, 5) hygiene, 6) reach, 7) grip, and 8) common daily activities. For each of these categories, patients report the amount of difficulty they have in performing two or three specific activities.
There are four possible responses for the Disability Index questions: • Without any difficulty=0 • With some difficulty=1 • With much difficulty=2 • Unable to do=3. • The highest score reported by the patient for any component question of the eight categories determines the score for that category. • If a component question is left blank or the response is too ambiguous to assign a score, then the score for that category is determined by the remaining completed question(s). • If all component questions are blank or if more than one answer is given, then follow up with the respondent is required. • If the respondent's mark is between the response columns, then move it to the closest one. If it's directly between the two, move it to the higher one.
Each of the disability items on the SHAQ has a companion aids/devices variable that is used to record what type(s) of assistance, if any, the participant uses for his/her usual activities. These variables (see below) are coded as follows: • 0=No assistance is needed. • 1=A special device is used by the patient in his/her usual activities. • 2=The patient usually needs help from another person. • 3=The patient usually needs BOTH a special device AND help from another person.
The scoring variables and scoring rules permit the computation of two disability indices, the Standard Disability Index and the Alternative Disability Index.
This question results in a new set of category scores that are computed by adjusting the score for each category, if necessary, based on the patient's use of an aid or device or assistance for that category. If either devices and/or help from another person are checked for a category, the score is set to “2”, unless the score is already “3” (i.e., scores of “0” or “1” are increased to “2”). For example, if the highest score for the dressing category is “1”, and the patient says they use a device for dressing, the computed category score would be “2”. The sum of the computed categories scores is then calculated and divided by the number of categories answered. This gives a score in the 0 to 3 range.
The aid and device variables are not used to calculate the alternative disability index; it is calculated by adding the scores for each of the categories and dividing by the number of categories answered. This gives a score in the 0 to 3 range.
The standard, validated, patient reported outcome measures tool for SSc patients, the SHAQ, was collected at the time points specified in the study schedules (FIG. 2 and FIGS. 4A and 4B) to assess the participant's quality of life. The SHAQ included a Raynaud's VAS that will also be reported separately.

[1] = Day 12, mITT Part A, SSc patients, cilnidipine 10 mg and/or tadalafil 5 mg as in the arm
[2] = Day 12, mITT Part A, SSc patients, cilnidipine 10 mg and/or tadalafil 5 mg as in the arm, subject 01-110 score excluded
[3] = Day 12, mITT Part A, SSc patients, cilnidipine 20 mg (+ tadalafil 5 mg in the combination arm)
[4] = In-Clinic Visit (Day 12), Cilnidipine 10 mg (N = 4), PP Population Part A
[5] = In-Clinic Visit (Day 12), Cilnidipine 20 mg (N = 4), PP Population Part A
[6] = In-Clinic Visit (Day 12), Pooled Cilnidipine 10 mg and Cilnidipine 10 mg + Tadalafil 5 mg (N = 9), PP Population Part A

SMILES: COCCOC(=O)C1=C(C)NC(C)=C(C(=O)OC/C=C/c2ccccc2)C1c1cccc([N+](=O)[O-])c1 (centres unmarked) [Cilnidipine, cilnidipine]
- SHAQ Visual Analogue Scale - Raynaud's, Change from Baseline, Mean [1]: 0.167
- SHAQ Visual Analogue Scale - Raynaud's, Change from Baseline, Median [1]: −0.100
- SHAQ Visual Analogue Scale - Raynaud's, In-Clinic Visit (Day 12), Mean [1]: 2.300
- SHAQ Visual Analogue Scale - Raynaud's, In-Clinic Visit (Day 12), Median [1]: 2.600
- SHAQ Visual Analogue Scale - Raynaud's, Percent Change from Baseline, Mean [1]: 11.36%
- SHAQ Visual Analogue Scale - Raynaud's, Percent Change from Baseline, Median [1]: −2.27%
- SHAQ Visual Analogue Scale - Breathing Problems, Change from Baseline, Mean [2]: −0.400
- SHAQ Visual Analogue Scale - Breathing Problems, Change from Baseline, Median [2]: 0.000
- SHAQ Visual Analogue Scale - Breathing Problems, In-Clinic Visit (Day 12), Mean [2]: 2.100
- SHAQ Visual Analogue Scale - Breathing Problems, In-Clinic Visit (Day 12), Median [2]: 0.000
- SHAQ Visual Analogue Scale - Breathing Problems, Percent Change from Baseline, Mean [2]: −16.00%
- SHAQ Visual Analogue Scale - Breathing Problems, Percent Change from Baseline, Median [2]: −16.00%
- SHAQ Alternative Disability Index, Change from Baseline, Mean [3]: −0.083
- SHAQ Alternative Disability Index, Change from Baseline, Median [3]: −0.125
- SHAQ Alternative Disability Index, In-Clinic Visit (Day 12), Mean [3]: 0.125
- SHAQ Alternative Disability Index, In-Clinic Visit (Day 12), Median [3]: 0.125
- SHAQ Alternative Disability Index, Percent Change from Baseline, Mean [3]: −41.67%
- SHAQ Alternative Disability Index, Percent Change from Baseline, Median [3]: −41.67%
- SHAQ Visual Analogue Scale - Breathing Problems, Change from Baseline, Mean [3]: −0.833
- SHAQ Visual Analogue Scale - Breathing Problems, Change from Baseline, Median [3]: −0.800
- SHAQ Visual Analogue Scale - Breathing Problems, In-Clinic Visit (Day 12), Mean [3]: 0.300
- SHAQ Visual Analogue Scale - Breathing Problems, In-Clinic Visit (Day 12), Median [3]: 0.400
- SHAQ Visual Analogue Scale - Breathing Problems, Percent Change from Baseline, Mean [3]: −5.56%
- SHAQ Visual Analogue Scale - Breathing Problems, Percent Change from Baseline, Median [3]: −66.67%
- SHAQ Visual Analogue Scale - Finger Ulcers, Change from Baseline, Mean [3]: −0.933
- SHAQ Visual Analogue Scale - Finger Ulcers, Change from Baseline, Median [3]: 0.000
- SHAQ Visual Analogue Scale - Finger Ulcers, In-Clinic Visit (Day 12), Mean [3]: 0.867
- SHAQ Visual Analogue Scale - Finger Ulcers, In-Clinic Visit (Day 12), Median [3]: 0.700
- SHAQ Visual Analogue Scale - Finger Ulcers, Percent Change from Baseline, Mean [3]: 35.29%
- SHAQ Visual Analogue Scale - Finger Ulcers, Percent Change from Baseline, Median [3]: 35.29%
- SHAQ Visual Analogue Scale - Intestinal Problems, Change from Baseline, Mean [3]: 0.300
- SHAQ Visual Analogue Scale - Intestinal Problems, Change from Baseline, Median [3]: 0.300
- SHAQ Visual Analogue Scale - Intestinal Problems, In-Clinic Visit (Day 12), Median [3]: 1.300
- SHAQ Visual Analogue Scale - Intestinal Problems, Percent Change from Baseline, Mean [3]: 35.00%
- SHAQ Visual Analogue Scale - Intestinal Problems, Percent Change from Baseline, Median [3]: 35.00%
- SHAQ Visual Analogue Scale - Overall Disease Severity, Change from Baseline, Median [3]: −1.600
- SHAQ Visual Analogue Scale - Overall Disease Severity, In-Clinic Visit (Day 12), Mean [3]: 1.033
- SHAQ Visual Analogue Scale - Overall Disease Severity, In-Clinic Visit (Day 12), Median [3]: 1.200
- SHAQ Visual Analogue Scale - Overall Disease Severity, Percent Change from Baseline, Median [3]: −60.00%
- SHAQ Visual Analogue Scale - Pain, Change from Baseline, Mean [3]: −1.100
- SHAQ Visual Analogue Scale - Pain, Change from Baseline, Median [3]: −0.800
- SHAQ Visual Analogue Scale - Pain, In-Clinic Visit (Day 12), Mean [3]: 1.067
- SHAQ Visual Analogue Scale - Pain, In-Clinic Visit (Day 12), Median [3]: 0.700
- SHAQ Visual Analogue Scale - Pain, Percent Change from Baseline, Mean [3]: −52.56%
- SHAQ Visual Analogue Scale - Pain, Percent Change from Baseline, Median [3]: −53.33%
- SHAQ Visual Analogue Scale - Raynaud's, Change from Baseline, Median [3]: −1.100
- SHAQ Visual Analogue Scale - Raynaud's, In-Clinic Visit (Day 12), Mean [3]: 1.033
- SHAQ Visual Analogue Scale - Raynaud's, In-Clinic Visit (Day 12), Median [3]: 1.100
- SHAQ Visual Analogue Scale - Raynaud's, Percent Change from Baseline, Median [3]: −44.00%
- SHAQ Alternative Disability Index, Mean [4]: 0.563
- SHAQ Alternative Disability Index, Median [4]: 0.500
- SHAQ Standard Disability Index, Mean [4]: 0.656
- SHAQ Standard Disability Index, Median [4]: 0.563
- SHAQ Alternative Disability Index, Mean [5]: 0.219
- SHAQ Alternative Disability Index, Median [5]: 0.188
- SHAQ Standard Disability Index, Mean [5]: 0.281
- SHAQ Standard Disability Index, Median [5]: 0.188
- SHAQ Visual Analogue Scale - Finger Ulcers, Mean [6]: 0.389
- SHAQ Visual Analogue Scale - Finger Ulcers, Median [6]: 0.000
- SHAQ Visual Analogue Scale - Intestinal Problems, Mean [6]: 1.217
- SHAQ Visual Analogue Scale - Intestinal Problems, Median [6]: 0.700
- SHAQ Visual Analogue Scale - Overall Disease Severity, Mean [6]: 2.439
